This note sets out measurements from patent publication US12091425B2 (AMGEN INC., priority 2016, dated 2024).

SMILES strings stand for the structures.

Assay [1] addresses T1, Mcl-1/Bim interaction, recombinant human Mcl-1 (171-327) (Homo sapiens, UniProt Q07820).
T1 construct: made in house
The assay can be described thus: Cell free Mcl-1: Bim Affinity Assay (Mcl-1 HTRF). Format: binding. The following applies: cell free Mcl-1:Bim TR-FRET, recombinant human Mcl-1 (171-327). A digest of the protocol: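 TR-FRET competition assay with biotinylated human Bim peptide (residues 51-76); reaction plates incubated overnight before reading. IC50 values came from duplicate data fitted to a four-parameter sigmoidal competition curve.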

Assay [2] relates to OPM-2 human multiple myeloma cell line. As to the kind of experiment: Cell Viability Assay (OPM-2 10 FBS). In kind it is cell-based. The following applies: OPM-2 cells, 16 h, CellTiter-Glo. The method in brief: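 ATP-based luminescence (CellTiter-Glo) measured after a 16 h compound treatment of OPM-2 cells seeded at 3000 cells/well in 10% FBS medium. IC50 values derived by 4-parameter logistic fitting of serial dilutions.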
(In general: ATP-based viability assays read luminescence as a measure of living cells.)

T1 sequence (Q07820 171-327): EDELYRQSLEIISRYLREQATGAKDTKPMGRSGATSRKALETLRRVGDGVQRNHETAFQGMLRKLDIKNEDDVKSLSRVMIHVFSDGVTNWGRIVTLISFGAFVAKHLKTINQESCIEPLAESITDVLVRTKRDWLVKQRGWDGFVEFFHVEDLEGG

With `COC(C)CC1CCC=CC(OC)C2CCC2CN2CC3(CCCc4cc(Cl)ccc43)COc3ccc(cc32)C(=O)NS1(=O)=O` (single isomer, unassigned) [Example 552], the IC50 stood at 0.481 nM in assay [1] and 2510 nM in assay [2] (Homo sapiens, OPM-2, 16 h).

In the case of `C[C@@H]1[C@@H](C)C/C=C/C[C@H](O)[C@@H]2CC[C@H]2CN2C[C@@]3(CCCc4cc(Cl)ccc43)COc3ccc(cc32)C(=O)NS1(=O)=O` (single isomer, unassigned) [Example 555], the IC50 in assay [1] was 4.77 nM; in assay [2], 2610 nM.

Regarding `C[C@@H]1[C@@H](C)CCCC[C@H](O)[C@@H]2CC[C@H]2CN2C[C@@]3(CCCc4cc(Cl)ccc43)COc3ccc(cc32)C(=O)NS1(=O)=O` (single isomer, unassigned) [Example 556], the IC50 in assay [1] is 1.65 nM; in assay [2], 781 nM.

For the molecule `C[C@H]1C/C=C/C[C@H](O)[C@@H]2CC[C@H]2CN2C[C@@]3(CCCc4cc(Cl)ccc43)COc3ccc(cc32)C(=O)NS(=O)(=O)[C@H]1C` (single isomer, unassigned) [Example 557], the IC50 in assay [1] was determined as 1.08 nM; in assay [2], 1040 nM.

Take `CC(C)(O)CC1CCC=CC(O)C2CCC2CN2CC3(CCCc4cc(Cl)ccc43)COc3ccc(cc32)C(=O)NS1(=O)=O` (single isomer, unassigned) [Example 558]: the IC50 in assay [1] stood at 0.284 nM; in assay [2] (Homo sapiens, OPM-2, 16 h), 891 nM.

On to `CC(C)(O)C[C@@H]1CC/C=C/[C@H](O)[C@@H]2CC[C@H]2CN2C[C@@]3(CCCc4cc(Cl)ccc43)COc3ccc(cc32)C(=O)NS1(=O)=O` (single isomer, unassigned) [Example 559], for which the IC50 in assay [1] was determined as 0.598 nM; in assay [2], 4420 nM.

Take `COC(=O)CC[C@]1(C)CC/C=C/[C@H](O)[C@@H]2CC[C@H]2CN2C[C@@]3(CCCc4cc(Cl)ccc43)COc3ccc(cc32)C(=O)NS1(=O)=O` (single isomer, unassigned) [Example 561]: the IC50 came to 3.58 nM in assay [1] and 8470 nM in assay [2].

In the case of `COC(=O)CC[C@]1(C)CC/C=C\[C@H](O)[C@@H]2CC[C@H]2CN2C[C@@]3(CCCc4cc(Cl)ccc43)COc3ccc(cc32)C(=O)NS1(=O)=O` (single isomer, unassigned) [Example 562], the IC50 in assay [1] came to 1.12 nM; in assay [2], 986 nM.

Take `COC(=O)CC[C@@]1(C)CC/C=C\[C@H](O)[C@@H]2CC[C@H]2CN2C[C@@]3(CCCc4cc(Cl)ccc43)COc3ccc(cc32)C(=O)NS1(=O)=O` (single isomer, unassigned) [Example 563]: the IC50 in assay [1] was 2.69 nM; in assay [2], 4500 nM.

With `Cc1nnc(C[C@@H]2CC/C=C/[C@H](O)[C@@H]3CC[C@H]3CN3C[C@@]4(CCCc5cc(Cl)ccc54)COc4ccc(cc43)C(=O)NS2(=O)=O)o1` (single isomer, unassigned) [Example 564], the figures for the IC50 in assay [1] and in assay [2] were 0.308 nM and 3040 nM, respectively.

As to `Cc1nnc(C[C@H]2CC/C=C/[C@H](O)[C@@H]3CC[C@H]3CN3C[C@@]4(CCCc5cc(Cl)ccc54)COc4ccc(cc43)C(=O)NS2(=O)=O)o1` (single isomer, unassigned) [Example 565], the IC50 turned out to be 0.61 nM in assay [1] and 12600 nM in assay [2].

With `CC(C)OC(=O)CC1C(C)CC=CC(O)C2CCC2CN2CC3(CCCc4cc(Cl)ccc43)COc3ccc(cc32)C(=O)NS1(=O)=O` (single isomer, unassigned) [Example 566], the IC50 in assay [1] came to 0.384 nM; in assay [2], 282 nM.

For `CC(C)OC(=O)CC1C(C)CC=CC(O)C2CCC2CN2CC3(CCCc4cc(Cl)ccc43)COc3ccc(cc32)C(=O)NS1(=O)=O` (single isomer, unassigned) [Example 567], the IC50 came out at 3.69 nM in assay [1] and 4510 nM in assay [2].

On to `CO[C@H]1C/C=C/[C@H](O)[C@@H]2CC[C@H]2CN2C[C@@]3(CCCc4cc(Cl)ccc43)COc3ccc(cc32)C(=O)NS(=O)(=O)[C@@H]1CC1CC1` (single isomer, unassigned) [Example 574], for which the values for the IC50 in assay [1] and in assay [2] were 0.393 nM and 188 nM, respectively.

As to `CO[C@H]1C/C=C/[C@H](O)[C@@H]2CC[C@H]2CN2C[C@@]3(CCCc4cc(Cl)ccc43)COc3ccc(cc32)C(=O)NS(=O)(=O)[C@@H]1CC1CC1` (single isomer, unassigned) [Example 575], the IC50 in assay [1] worked out at 3.21 nM; in assay [2] it was 2070 nM.

For `COC(=O)CC1C(C)CC=CC(OC)C2CCC2CN2CC3(CCCc4cc(Cl)ccc43)COc3ccc(cc32)C(=O)NS1(=O)=O` (single isomer, unassigned) [Example 576], the IC50 in assay [1] turned out to be 0.382 nM; in assay [2], 220 nM.

As to `NC(=O)OC[C@@H]1CC/C=C/[C@H](O)[C@@H]2CC[C@H]2CN2C[C@@]3(CCCc4cc(Cl)ccc43)COc3ccc(cc32)C(=O)NS1(=O)=O` (single isomer, unassigned) [Example 611], the IC50 in assay [1] was determined as 0.275 nM; in assay [2] (Homo sapiens, OPM-2, 16 h), 8490 nM.

As to `NC(=O)OC[C@@H]1CC/C=C\[C@H](O)[C@@H]2CC[C@H]2CN2C[C@@]3(CCCc4cc(Cl)ccc43)COc3ccc(cc32)C(=O)NS1(=O)=O` (single isomer, unassigned) [Example 612], the IC50 in assay [1] was determined as 0.362 nM; in assay [2] (Homo sapiens, OPM-2, 16 h), 15200 nM.

On to `N#CCC[C@@H]1CC/C=C/[C@H](O)[C@@H]2CC[C@H]2CN2C[C@@]3(CCCc4cc(Cl)ccc43)COc3ccc(cc32)C(=O)NS1(=O)=O` (single isomer, unassigned) [Example 613], for which the IC50 in assay [1] is 0.329 nM; in assay [2] (Homo sapiens, OPM-2, 16 h) it was 1540 nM.

Turning to `N#CCC[C@H]1CC/C=C/[C@H](O)[C@@H]2CC[C@H]2CN2C[C@@]3(CCCc4cc(Cl)ccc43)COc3ccc(cc32)C(=O)NS1(=O)=O` (single isomer, unassigned) [Example 614], the IC50 in assay [1] was 1.13 nM; in assay [2], 8070 nM.

Take `CO[C@H]1/C=C/CC[C@@H](CC(C)(C)OC)S(=O)(=O)NC(=O)c2ccc3c(c2)N(C[C@@H]2CC[C@H]21)C[C@@]1(CCCc2cc(Cl)ccc21)CO3` (single isomer, unassigned) [Example 615]: the results for the IC50 in assay [1] and in assay [2] were 0.696 nM and 643 nM, respectively.

For `CO[C@H]1/C=C/CC[C@@H](CCO)S(=O)(=O)NC(=O)c2ccc3c(c2)N(C[C@@H]2CC[C@H]21)C[C@@]1(CCCc2cc(Cl)ccc21)CO3` (single isomer, unassigned) [Example 617], the results for the IC50 in assay [1] and in assay [2] were 0.221 nM and 11500 nM, respectively.

`CN(C)C(=O)CC[C@@H]1CC/C=C/[C@H](O)[C@@H]2CC[C@H]2CN2C[C@@]3(CCCc4cc(Cl)ccc43)COc3ccc(cc32)C(=O)NS1(=O)=O` (single isomer, unassigned) [Example 618]: the IC50 in assay [1] is 0.172 nM; in assay [2], 607 nM.

Take `COC(=O)CC1CCC=CC(O)C2CCC2CN2CC3(CCCc4cc(Cl)ccc43)COc3ccc(cc32)C(=O)NS1(=O)=O` (single isomer, unassigned) [Example 619]: the figures for the IC50 in assay [1] and in assay [2] were 0.187 nM and 401 nM, respectively.

`CN(C)C(=O)C[C@@H]1CC/C=C/[C@H](O)[C@@H]2CC[C@H]2CN2C[C@@]3(CCCc4cc(Cl)ccc43)COc3ccc(cc32)C(=O)NS1(=O)=O` (single isomer, unassigned) [Example 621]: the figures for the IC50 in assay [1] and in assay [2] were 0.225 nM and 3670 nM, respectively.

With `CO[C@H]1/C=C/CCC(CCC(=O)N(C)C)S(=O)(=O)NC(=O)c2ccc3c(c2)N(C[C@@H]2CC[C@H]21)C[C@@]1(CCCc2cc(Cl)ccc21)CO3` (single isomer, unassigned) [Example 622], the figures for the IC50 in assay [1] and in assay [2] were 0.224 nM and 257 nM, respectively.

Consider `CN(C)S(=O)(=O)N1CCN(C(=O)CC[C@@H]2CC/C=C/[C@H](O)[C@@H]3CC[C@H]3CN3C[C@@]4(CCCc5cc(Cl)ccc54)COc4ccc(cc43)C(=O)NS2(=O)=O)CC1` (single isomer, unassigned) [Example 626], for which the IC50 in assay [1] came to 0.305 nM; in assay [2] it was 2200 nM.

In the case of `CN(C)S(=O)(=O)N1CCN(C(=O)C[C@@H]2CC/C=C/[C@H](O)[C@@H]3CC[C@H]3CN3C[C@@]4(CCCc5cc(Cl)ccc54)COc4ccc(cc43)C(=O)NS2(=O)=O)CC1` (single isomer, unassigned) [Example 631], the IC50 is 0.298 nM in assay [1] and 2530 nM in assay [2].

With `Cc1nnc(CCC2CCC=CC(O)C3CCC3CN3CC4(CCCc5cc(Cl)ccc54)COc4ccc(cc43)C(=O)NS2(=O)=O)o1` (single isomer, unassigned) [Example 632], the IC50 in assay [1] amounted to 0.187 nM; in assay [2] (Homo sapiens, OPM-2, 16 h), 878 nM.

For `O=C1NS(=O)(=O)C(Cc2ccc(Br)cc2)CCC=CC(O)C2CCC2CN2CC3(CCCc4cc(Cl)ccc43)COc3ccc1cc32` (single isomer, unassigned) [Example 633], the IC50 in assay [1] was determined as 23.1 nM; in assay [2] it was 17800 nM.

`COC1CC=CC(O)C2CCC2CN2CC3(CCCc4cc(Cl)ccc43)COc3ccc(cc32)C(=O)NS(=O)(=O)C1CC1CCCO1` (single isomer, unassigned) [Example 638]: the IC50 in assay [1] was found to be 0.243 nM; in assay [2] (Homo sapiens, OPM-2, 16 h) it was 131 nM.

For the molecule `COC1C=CCC(OC)C(CC2CCCO2)S(=O)(=O)NC(=O)c2ccc3c(c2)N(CC2CCC21)CC1(CCCc2cc(Cl)ccc21)CO3` (single isomer, unassigned) [Example 641], the IC50 amounted to 0.537 nM in assay [1] and 282 nM in assay [2] (Homo sapiens, OPM-2, 16 h).

For `COC1C=CCC(OC)C(CC2CCCO2)S(=O)(=O)NC(=O)c2ccc3c(c2)N(CC2CCC21)CC1(CCCc2cc(Cl)ccc21)CO3` (single isomer, unassigned) [Example 642], the values for the IC50 in assay [1] and in assay [2] were 0.539 nM and 351 nM, respectively.

For `CO[C@H]1C/C=C/[C@H](O)[C@@H]2CC[C@H]2CN2C[C@@]3(CCCc4cc(Cl)ccc43)COc3ccc(cc32)C(=O)NS(=O)(=O)[C@@H]1CC(C)C` (single isomer, unassigned) [Example 643], the IC50 in assay [1] came to 0.337 nM; in assay [2] (Homo sapiens, OPM-2, 16 h) it was 151 nM.

One may read the IC50 as the concentration that inhibits the measured activity by half.
